Reference: patent US9371292B2, “Quinazoline derivative, preparation method therefor, intermediate, composition and application thereof” (SHANGHAI PHARMACEUTICALS HOLDINGS CO., LTD., priority 2011, dated 2016)
pIC50: −log10 of the molar value. Where two headings read alike, the source gives them in different places.

Columns and labels:
EGFR = EGFR (Homo sapiens, UniProt P00533); assay: Mobility shift assay, kinase inhibition (EGFR); format: biochemical; conditions: read-out: Kinase inhibitory activity IC50 (nM) EGFR
Sequence of EGFR (P00533 25-1210): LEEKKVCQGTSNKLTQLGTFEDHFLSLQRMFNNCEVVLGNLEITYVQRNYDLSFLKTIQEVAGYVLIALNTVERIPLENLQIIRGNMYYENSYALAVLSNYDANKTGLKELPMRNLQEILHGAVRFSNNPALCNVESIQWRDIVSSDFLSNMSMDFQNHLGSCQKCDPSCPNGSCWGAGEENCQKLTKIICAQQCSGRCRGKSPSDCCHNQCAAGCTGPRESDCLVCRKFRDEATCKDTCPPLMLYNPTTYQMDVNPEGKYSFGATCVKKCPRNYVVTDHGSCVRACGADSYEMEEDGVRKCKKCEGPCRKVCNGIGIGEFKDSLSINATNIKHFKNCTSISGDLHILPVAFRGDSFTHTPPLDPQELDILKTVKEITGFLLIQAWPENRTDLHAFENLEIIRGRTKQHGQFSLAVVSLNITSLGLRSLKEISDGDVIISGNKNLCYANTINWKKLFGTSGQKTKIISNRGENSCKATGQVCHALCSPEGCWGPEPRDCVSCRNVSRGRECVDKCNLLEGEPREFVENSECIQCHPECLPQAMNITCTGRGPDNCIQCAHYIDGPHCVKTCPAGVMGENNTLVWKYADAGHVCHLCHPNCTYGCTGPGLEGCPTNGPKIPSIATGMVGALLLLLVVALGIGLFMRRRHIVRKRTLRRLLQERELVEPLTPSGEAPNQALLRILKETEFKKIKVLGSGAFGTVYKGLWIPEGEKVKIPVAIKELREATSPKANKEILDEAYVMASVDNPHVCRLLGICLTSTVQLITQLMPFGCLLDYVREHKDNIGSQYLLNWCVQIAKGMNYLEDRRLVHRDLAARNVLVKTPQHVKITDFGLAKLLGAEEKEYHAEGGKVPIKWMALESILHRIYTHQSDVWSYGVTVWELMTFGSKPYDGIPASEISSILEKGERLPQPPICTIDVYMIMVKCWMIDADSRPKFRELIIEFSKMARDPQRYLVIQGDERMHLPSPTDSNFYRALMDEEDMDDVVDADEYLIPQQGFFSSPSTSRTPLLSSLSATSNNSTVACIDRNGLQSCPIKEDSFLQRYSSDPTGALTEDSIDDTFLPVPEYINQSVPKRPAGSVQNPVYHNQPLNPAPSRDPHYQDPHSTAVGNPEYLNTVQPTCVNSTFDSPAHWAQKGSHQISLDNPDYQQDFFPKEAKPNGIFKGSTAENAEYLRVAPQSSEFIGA
Description: (§1) Enzyme activity assay was test by the Mobility shift assay method (Expert Opin Drug Discov. 2008, 3(6): 607-621). A 10 mM stock solution of the test compound in DMSO were made after weighing. According to the required concentration, proper quantity of the 10 mM stock solution was dissolved in water to get a work solution with a concentration 5 times the final concentration. And various kinases, EGFR, HER2, HER4 were dissolved into a reaction buffer with a concentration 1.25 times the required concentration (62.5 mM HEPES, pH7.5, 0.001875% Brij-35, 12.5 mM MgCl2, 2.5 mM DTT), and get a enzyme work solution with a concentration 2.5 times the final concentration. At the same time, ATP and FAM tag peptide substrates will be dissolved in the reaction buffer with a concentration of 1.25× to get a substrate and ATP working solution with a concentration 2.5 times the required concentration. Then 5 μl the work solution of compound is added to 384 wells test plate, 5 μl 250 mM EDTA is added to a blank control, the same volume of work solution without drug is added to the negative control (Max). 10 μl Enzyme work solution is added at the same time. After mix gently and hatch for 10 minutes at room temperature, 10 μl substrate and ATP work solution are added to each well. The test plates are placed at 28 degrees for 60 mins. Then 25 μl suspending liquid is added into each reaction well (100 mM HEPES, pH7.5, 0.015% Brij-35, 0.2% Coating Reagent#3, 50 mM EDTA) to quench the enzyme reaction. Finally, the plate is put on Caliper EZ reader to collect conversion rate of the substrate in each well (The phosphorylation ratio of the substrate caused by the kinases). Based on the data described above, the kinase inhibitory of the compound can be calculated as follows: % inh=(Max−conversion)/(Max−Min)×100, wherein % inh is percent inhibition, Max is the conversion ratio of the substrate in negative control well, min is the conversion ratio of the substrate in blank control well, conversion is the conversion rate of substrate in each well with various concentration of the test compound. The % inh value of each concentration of the test compound would be analyzed in Xlift to obtain the corresponding IC50 value, the curve fitting formula is: Y=Bottom+(Top−Bottom)/(1+10^((Log IC50−X)*Hillslope))

HER2 = HER2 (Homo sapiens, UniProt P04626); assay: Mobility shift assay, kinase inhibition (HER2); format: biochemical; conditions: read-out: Kinase inhibitory activity IC50 (nM) HER2
Sequence of HER2 (P04626 23-1255): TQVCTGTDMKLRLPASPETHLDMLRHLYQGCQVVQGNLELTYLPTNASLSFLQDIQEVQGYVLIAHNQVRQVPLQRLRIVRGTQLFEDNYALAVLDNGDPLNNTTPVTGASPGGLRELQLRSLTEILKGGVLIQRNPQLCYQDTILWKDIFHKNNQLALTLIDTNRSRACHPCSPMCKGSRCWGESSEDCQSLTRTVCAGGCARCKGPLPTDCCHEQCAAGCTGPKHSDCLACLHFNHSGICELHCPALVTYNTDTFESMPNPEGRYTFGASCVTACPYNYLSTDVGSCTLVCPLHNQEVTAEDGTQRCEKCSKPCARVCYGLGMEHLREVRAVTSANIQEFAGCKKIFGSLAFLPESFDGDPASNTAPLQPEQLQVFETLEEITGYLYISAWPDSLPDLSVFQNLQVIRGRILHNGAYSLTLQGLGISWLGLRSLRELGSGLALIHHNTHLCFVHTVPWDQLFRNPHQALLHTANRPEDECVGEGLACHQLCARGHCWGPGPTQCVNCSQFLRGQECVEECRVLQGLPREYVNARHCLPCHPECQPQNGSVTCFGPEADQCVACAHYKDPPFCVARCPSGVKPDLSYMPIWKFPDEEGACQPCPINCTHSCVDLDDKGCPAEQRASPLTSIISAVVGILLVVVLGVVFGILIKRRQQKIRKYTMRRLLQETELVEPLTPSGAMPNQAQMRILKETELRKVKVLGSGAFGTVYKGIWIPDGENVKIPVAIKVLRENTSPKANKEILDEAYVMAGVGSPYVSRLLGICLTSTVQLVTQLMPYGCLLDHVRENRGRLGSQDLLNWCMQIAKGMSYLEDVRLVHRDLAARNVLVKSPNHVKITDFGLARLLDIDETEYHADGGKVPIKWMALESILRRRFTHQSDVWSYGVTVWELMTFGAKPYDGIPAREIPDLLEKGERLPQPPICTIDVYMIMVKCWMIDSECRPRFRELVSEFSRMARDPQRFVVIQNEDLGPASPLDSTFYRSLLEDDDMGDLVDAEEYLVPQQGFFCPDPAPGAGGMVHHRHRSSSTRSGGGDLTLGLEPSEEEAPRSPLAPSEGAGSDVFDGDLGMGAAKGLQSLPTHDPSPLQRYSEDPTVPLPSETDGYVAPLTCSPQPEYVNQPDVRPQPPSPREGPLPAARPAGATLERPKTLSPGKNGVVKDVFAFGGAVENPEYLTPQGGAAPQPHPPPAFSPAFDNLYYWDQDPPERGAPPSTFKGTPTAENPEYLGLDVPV
Description: as §1

HER4 = HER4 (Homo sapiens, UniProt Q15303); assay: Mobility shift assay, kinase inhibition (HER4); format: biochemical; conditions: read-out: Kinase inhibitory activity IC50 (nM) HER4
Sequence of HER4 (Q15303 26-1308): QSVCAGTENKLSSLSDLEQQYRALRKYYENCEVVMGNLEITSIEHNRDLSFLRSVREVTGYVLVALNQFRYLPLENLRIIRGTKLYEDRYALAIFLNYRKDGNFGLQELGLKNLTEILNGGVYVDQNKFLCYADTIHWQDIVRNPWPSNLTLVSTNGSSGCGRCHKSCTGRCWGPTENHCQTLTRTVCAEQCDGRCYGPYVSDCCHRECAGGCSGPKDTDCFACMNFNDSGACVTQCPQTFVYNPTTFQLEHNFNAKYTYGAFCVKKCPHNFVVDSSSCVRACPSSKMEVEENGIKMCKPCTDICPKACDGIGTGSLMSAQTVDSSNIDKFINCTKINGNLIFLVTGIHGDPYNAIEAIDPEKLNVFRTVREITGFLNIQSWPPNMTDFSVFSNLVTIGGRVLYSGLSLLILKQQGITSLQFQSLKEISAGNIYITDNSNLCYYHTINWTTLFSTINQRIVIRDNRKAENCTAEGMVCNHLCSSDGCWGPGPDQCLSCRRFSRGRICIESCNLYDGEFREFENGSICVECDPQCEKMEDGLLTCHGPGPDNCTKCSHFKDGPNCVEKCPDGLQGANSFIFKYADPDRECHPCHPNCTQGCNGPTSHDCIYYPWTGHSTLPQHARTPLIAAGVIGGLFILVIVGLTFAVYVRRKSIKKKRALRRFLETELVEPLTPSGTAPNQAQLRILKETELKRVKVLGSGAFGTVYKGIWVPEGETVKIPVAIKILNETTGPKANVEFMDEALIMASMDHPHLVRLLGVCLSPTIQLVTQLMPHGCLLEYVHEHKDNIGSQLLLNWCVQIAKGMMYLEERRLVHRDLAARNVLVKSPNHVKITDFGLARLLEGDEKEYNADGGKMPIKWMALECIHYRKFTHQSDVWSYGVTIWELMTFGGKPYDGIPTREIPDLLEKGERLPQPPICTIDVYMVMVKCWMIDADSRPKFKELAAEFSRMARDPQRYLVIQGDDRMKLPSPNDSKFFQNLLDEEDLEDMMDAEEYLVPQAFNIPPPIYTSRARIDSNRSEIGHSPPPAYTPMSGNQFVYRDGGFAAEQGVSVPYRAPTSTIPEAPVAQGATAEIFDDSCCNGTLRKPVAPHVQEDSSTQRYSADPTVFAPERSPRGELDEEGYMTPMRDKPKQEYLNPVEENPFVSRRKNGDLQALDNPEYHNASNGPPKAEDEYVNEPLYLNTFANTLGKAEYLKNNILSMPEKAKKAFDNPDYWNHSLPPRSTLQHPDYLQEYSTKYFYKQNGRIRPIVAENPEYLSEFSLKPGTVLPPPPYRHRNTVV
Description: as §1

NCI-H1975 = format: in vivo, BALB/c nude mice; conditions: for Tumor volume: 60 mg/kg PO QD; for Tolerability in mice: mouse, in vivo, po
From the text: Preparation method: dissolve the test compound in 20% PEG400+3% Tween80 to obtain a required concentration; dissolve the control group in 0.5% CMC+0.4% Tween80 to obtain a required concentration.
BALB/c nude mice (Shanghai xipuer-bikai experimental animals company), weight 16-18 g, female. BD matrigel, NCI-H1975 cell (ATCC)
Cells in logarithmic phase were collected. The ratio of medium to matrigel was 1:1. The concentration of cell was adjust to 3×10^7/ml and put into a ice box, then inoculated in each nude mice subcutaneously with 0.2 ml. Then carry out intragastric administration once a day for 5 days and stop administration for 2 days. Administrate for 9 days in total. Dosages are as follows:
The size and weight were measured. The length and width of tumors were measured individually with microcalipers. Tumor volume (V) and relative tumor volume (RTV) was calculated as formula. Day 12, all the nude mouse were killed and the tumors were taken out and pictured. The individual as follows: RTV=Vt/V0, where Vt is and V0 is. and the calculation formula is T/C (%)=mean RTV of the treated group/mean RTV of the control group×100%.
(1) Tumor volume (Tumor Volume, TV), calculation formula: […], wherein a and b presents length and width respectively.
(2) Relative Tumor Volume (RTV), calculation formula: RTV=Vt/V0.
Wherein TV0 is the volume on the day of initial treatment, TVt is the volume on each day of measurement.
(3) The relative tumor increment rate T/C (%), calculation formula: […]
TRTV: treated group RTV; CRTV: negative control group RTV.
Therapeutic effect of compound was expressed in terms of T/C %.

EGFR tyrosine kinase = target: T1, EGFR tyrosine kinase (Homo sapiens, UniProt P00533); assay: HTRF assay, inhibition of EGFR tyrosine kinase; format: biochemical; conditions: HTRF method
T1 construct: purchased Sigma Aldrich
T1 sequence (P00533 25-1210): as the sequence (P00533 25-1210) above
Description: The activity of inhibitory against the kinase of the test compound is expressed by IC50. The assays are performed by Homogeneous time-resolved fluorescence (HTRF) method which is as follows: a series of synthesized analogues with gradient concentration are incubated for 5 minutes in enzymatic solution with specific concentration (for EGFR) at room temperature. Then proper amount of substrate and ATP are added into the reaction mixture to start the enzyme reaction. The assays of the specific concentration of compound is measured by Flexstation III of Molecular device company after the stop buffer and detecting liquid are added to the enzyme reaction system and hatch at room temperature for 1 hour. And the activity of inhibitory against the kinase of the test compound with different concentration will be calculated, then according to the 4-parameter equation, fit the inhibitory activity of the test compound with different concentration to get the IC50. EGFR is purchased from Sigma Aldrich. The HTRF KinEASE-TK is purchased from Cisbio Bioassays. ATP is purchased from Sigma Aldrich.

[1] = test system: NCI-H1975 L858R T790M cell; assay: Proliferation inhibition, H1975 cells (CellTiter-Glo); format: cell-based; conditions: Homo sapiens, 48 hours
Description: (§2) This example is to determine the proliferation inhibitory activity against wide type of high expression cell lines A431 of EGFR and mutant cell lines NCI-H1975^L858RT790M, the proliferation inhibitory activity in cell-based level of compound is expressed by IC50. The test method is as follows: both cell lines are purchased from American type culture collection (ATCC). The cells are seeded in a white and opaque 384-well culture plate with a proper concentration (A431: 20000 cells/ml medium; H1975: 15000 cells/ml medium), cultured at 37° C. with 5% CO2 for 24 hrs, a series of medicine with gradient concentration is added, generally 10 concentrations, cultured for another 48 hours under the previous conditions. The assays of the proliferation inhibitory activity against the A431 and H1975 cell of the test compounds are performed by the CellTiter-Glo Luminescent Cell Viability Assay and calculate the proliferation inhibitory activity of compound with different concentrations. CellTiter-Glo Luminescent Cell Viability Assay is purchased from Promega. Fit the data of proliferation inhibitory activity against A431 and H1975 of compounds with different concentrations with 4-parameter equation.

A431 cell = assay: Proliferation inhibition, A431 cells (CellTiter-Glo); format: cell-based; conditions: Homo sapiens, A-431, 48 hours
Description: as §2

| IC50 (EGFR) [nM] | IC50 (HER2) [nM] | IC50 (HER4) [nM] | Structure (SMILES) | Tumor volume (NCI-H1975; Day 0, NCI-H1975 nude mice) [mm^3] | Tumor volume (NCI-H1975; Day 2, NCI-H1975 nude mice) [mm^3] | Tumor volume (NCI-H1975; Day 4, NCI-H1975 nude mice) [mm^3] | Tumor volume (NCI-H1975; Day 7, NCI-H1975 nude mice) [mm^3] | Tumor volume (NCI-H1975; Day 9, NCI-H1975 nude mice) [mm^3] | Tumor volume (NCI-H1975; Day 11, NCI-H1975 nude mice) [mm^3] | Inhibition of growth of NCI-H1975 in nude mice (in words) (NCI-H1975; NCI-H1975 nude mice, 60 mpk, 60 mg/kg) | IC50 (EGFR tyrosine kinase) [nM] | Tolerability in mice (NCI-H1975; 60 mg/kg) | pIC50 [1] | pIC50 (A431 cell) |
| --- | --- | --- | --- | --- | --- | --- | --- | --- | --- | --- | --- | --- | --- | --- |
| 1.7 | 168 | 21 | COc1cc2ncnc(Nc3ccc(F)c(Cl)c3)c2cc1NC(=O)C(F)=CCN(C)C (mixture of isomers) [Compound 1, N-(4-((3-chloro-4-fluorophenyl)amino)-7-methoxyquinazolin-6-yl)-4-(dimethylamino)-2-fluorobut-2-enamide] |  |  |  |  |  |  |  |  |  |  |  |
| 2.5 |  |  | COCCOc1cc2ncnc(Nc3ccc(F)c(Cl)c3)c2cc1NC(=O)C(F)=CCN(C)C (mixture of isomers) [Compound 3-1, N-(4-((3-chloro-4-fluorophenyl)amino)-7-(2-methoxyethoxy)quinazolin-6-yl)-4-(dimethylamino)-2-fluorobut-2-enamide] |  |  |  |  |  |  |  |  |  |  |  |
| 4.5 | 369 | 63 | COc1cc2ncnc(Nc3ccc(F)c(Cl)c3)c2cc1NC(=O)/C(F)=C\CN(C)C [Compound 2-2, (E)-N-(4-((3-chloro-4-fluorophenyl)amino)-7-methoxyquinazolin-6-yl)-4-(dimethylamino)-2-fluorobut-2-enamide] |  |  |  |  |  |  |  |  |  |  |  |
|  | 62 |  | COc1cc2ncnc(Nc3ccc(OCc4ccccn4)c(Cl)c3)c2cc1NC(=O)/C(F)=C/CN(C)C [Compound 4-1, (Z)—N-(4-((3-chloro-4-(pyridin-2-ylmethoxy)phenyl)amino)-7-methoxyquinazolin-6-yl)-4-(dimethylamino)-2-fluorobut-2-enamide] |  |  |  |  |  |  |  |  |  |  |  |
| 9.5 | 64 | 206 | COc1cc2ncnc(Nc3ccc(OCc4ccccn4)c(Cl)c3)c2cc1NC(=O)/C(F)=C\CN(C)C [Compound 4-2, (E)-N-(4-((3-chloro-4-(pyridin-2-ylmethoxy)phenyl)amino)-7-methoxyquinazolin-6-yl)-4-(dimethylamino)-2-fluorobut-2-enamide] |  |  |  |  |  |  |  |  |  |  |  |
|  |  |  | C=C(F)C(=O)Nc1cc2c(Nc3ccc(F)c(Cl)c3)ncnc2cc1OCCCN1CCOCC1 [Compound 5, N-(4-((3-chloro-4-fluorophenyl)amino)-7-(3-morpholinopropoxy)quinazolin-6-yl)-2-fluoroacrylamide] | 177 ± 17 | 160 ± 11 | 164 ± 27 | 147 ± 20 | 151 ± 27 | 131 ± 33 |  | 0.39 | well tolerated | 5.60 | 5.49 |
|  |  |  | C=C(F)C(=O)Nc1cc2c(Nc3ccc(F)c(Cl)c3F)ncnc2cc1OCC1CCN(C)CC1 [Compound 6, N-(4-((3-chloro-2,4-difluorophenyl)amino)-7-((1-methylpiperidin-4-yl)methoxy)quinazolin-6-yl)-2-fluoroacrylamide] | 179 ± 13 | 154 ± 35 | 113 ± 26 | 66 ± 16 | 58 ± 11 | 57 ± 11 |  | 0.54 | well tolerated | 5.92 | 6.30 |

| Structure (SMILES) | IC50 (EGFR) [nM] | IC50 (HER2) [nM] | IC50 (HER4) [nM] | Tumor volume (NCI-H1975; Day 0, NCI-H1975 nude mice) [mm^3] | Tumor volume (NCI-H1975; Day 2, NCI-H1975 nude mice) [mm^3] | Tumor volume (NCI-H1975; Day 4, NCI-H1975 nude mice) [mm^3] | Tumor volume (NCI-H1975; Day 7, NCI-H1975 nude mice) [mm^3] | Tumor volume (NCI-H1975; Day 9, NCI-H1975 nude mice) [mm^3] | Tumor volume (NCI-H1975; Day 11, NCI-H1975 nude mice) [mm^3] | Inhibition of growth of NCI-H1975 in nude mice (in words) (NCI-H1975; NCI-H1975 nude mice, 60 mpk, 60 mg/kg) | IC50 (EGFR tyrosine kinase) [nM] | Tolerability in mice (NCI-H1975; 60 mg/kg) | pIC50 [1] | pIC50 (A431 cell) |
| --- | --- | --- | --- | --- | --- | --- | --- | --- | --- | --- | --- | --- | --- | --- |
| COc1cc2ncnc(Nc3ccc(F)c(Cl)c3)c2cc1NC(=O)/C(F)=C/CN(C)C [Compound 2-1, (Z)—N-(4-((3-chloro-4-fluorophenyl)amino)-7-methoxyquinazolin-6-yl)-4-(dimethylamino)-2-fluorobut-2-enamide] | 1.3 | 75 | 23 | 190 ± 17 | 153 ± 11 | 121 ± 27 | 130 ± 20 | 134 ± 27 | 164 ± 33 | strong inhibitory |  |  |  |  |
